Assay results from patent US20110086759A1, “CHEMICAL COMPOUNDS” (SYNGENTA CROP PROTECTION, INC., priority 2007, published 2011).

Experiments:
Type in all cases: in vivo
[1] = tested on: Echinochloa crus-galli (ECHCG); test: Post-emergence biological efficacy, glasshouse pot test; conditions: 312 h
In short: (§1)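 Plants were sown in standard soil and grown 8 days in a glasshouse (24/16° C. day/night, 14 hours light, 65% humidity), then sprayed post-emergence at 1000 or 250 g/ha from acetone/water (50:50) with 0.5% Tween 20. Damage was scored visually after 13 days (0 = none, 100 = total).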

[2] = tested on: Ipomea hederaceae (IPOHE); test: as above; conditions: Ipomoea hederacea, 312 h
In short: as §1

[3] = tested on: Amaranthus retoflexus (AMARE); test: as above; conditions: Amaranthus retroflexus, 312 h
In short: as §1

[4] = tested on: Setaria faberi (SETFA); test: as above; conditions: 312 h
In short: as §1

[5] = tested on: Solanum nigrum (SOLNI); test: as above; conditions: 312 h
In short: as §1

[6] = tested on: Alopecurus myosuroides (ALOMY); test: as above; conditions: 312 h
In short: as §1

[7] = tested on: Echinochloa crus-galli (ECHCG); test: Pre-emergence biological efficacy, glasshouse pot test; conditions: 312 h
In short: (§2)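 Seeds sown in standard soil in pots, held one day in glasshouse (24/16 °C day/night, 14 h light, 65% humidity), then sprayed with aqueous solution from acetone/water (50:50) formulation with 0.5% Tween 20 at 1000 or 250 g/ha. Damage scored after 13 days (0 = none, 100 = total).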

[8] = tested on: Ipomea hederaceae (IPOHE); test: as above; conditions: Ipomoea hederacea, 312 h
In short: as §2

[9] = tested on: Amaranthus retoflexus (AMARE); test: as above; conditions: Amaranthus retroflexus, 312 h
In short: as §2

[10] = tested on: Setaria faberi (SETFA); test: as above; conditions: 312 h
In short: as §2

[11] = tested on: Solanum nigrum (SOLNI); test: as above; conditions: 312 h
In short: as §2

[12] = tested on: Alopecurus myosuroides (ALOMY); test: as above; conditions: 312 h
In short: as §2

[13] = post-emergence, 1,000 g/ha, evaluated after 13 days (100=total damage; 0=no damage), read-out: Percentage damage caused to weed species, ECHCG
[14] = post-emergence, 1,000 g/ha, evaluated after 13 days (100=total damage; 0=no damage), read-out: Percentage damage caused to weed species, IPOHE
[15] = post-emergence, 1,000 g/ha, evaluated after 13 days (100=total damage; 0=no damage), read-out: Percentage damage caused to weed species, AMARE
[16] = post-emergence, 1,000 g/ha, evaluated after 13 days (100=total damage; 0=no damage), read-out: Percentage damage caused to weed species, SETFA
[17] = post-emergence, 1,000 g/ha, evaluated after 13 days (100=total damage; 0=no damage), read-out: Percentage damage caused to weed species, SOLNI
[18] = post-emergence, 1,000 g/ha, evaluated after 13 days (100=total damage; 0=no damage), read-out: Percentage damage caused to weed species, ALOMY
[19] = pre-emergence, 1,000 g/ha, evaluated after 13 days (100=total damage; 0=no damage), read-out: Percentage damage ECHCG
[20] = pre-emergence, 1,000 g/ha, evaluated after 13 days (100=total damage; 0=no damage), read-out: Percentage damage IPOHE
[21] = pre-emergence, 1,000 g/ha, evaluated after 13 days (100=total damage; 0=no damage), read-out: Percentage damage AMARE
[22] = pre-emergence, 1,000 g/ha, evaluated after 13 days (100=total damage; 0=no damage), read-out: Percentage damage SETFA
[23] = pre-emergence, 1,000 g/ha, evaluated after 13 days (100=total damage; 0=no damage), read-out: Percentage damage SOLNI
[24] = pre-emergence, 1,000 g/ha, evaluated after 13 days (100=total damage; 0=no damage), read-out: Percentage damage ALOMY

SMILES	pest or weed control at 1000 g/ha [1, 13]	pest or weed control at 1000 g/ha [2, 14]	pest or weed control at 1000 g/ha [3, 15]	pest or weed control at 1000 g/ha [4, 16]	pest or weed control at 1000 g/ha [5, 17]	pest or weed control at 1000 g/ha [6, 18]	pest or weed control at 1000 g/ha [7, 19]	pest or weed control at 1000 g/ha [8, 20]	pest or weed control at 1000 g/ha [9, 21]	pest or weed control at 1000 g/ha [10, 22]	pest or weed control at 1000 g/ha [11, 23]	pest or weed control at 1000 g/ha [12, 24]	other results
COC(=O)c1nc(C2CC2)nc(NCCN2CCNC2=O)c1Cl [Compound 4-219, 5-Chloro-2-cyclopropyl-6-methoxycarbonyl-4-[2-(2-oxo-imidazolidin-1-yl)ethylamino]-pyrimidine]	0%	50%	50%	10%	50%	0%	0%	90%	60%	0%	30%	0%	
COC(=O)c1nc(C2CC2)nc(NCc2ccc(Cl)c(OC)c2)c1Cl [Compound 4-116, 5-Chloro-4-(4-chloro-3-methoxy-phenylmethyl-amino)-2-cyclopropyl-6-methoxycarbonyl-pyrimidine]	100%	100%	100%	90%	100%	60%	70%	100%	100%	80%	100%	50%	
COC(=O)c1nc(C2CC2)nc(NCc2cccc(Br)c2)c1Cl [Compound 4-68, 4-(3-Bromophenyl-methylamino)5-chloro-2-cyclopropyl-6-methoxycarbonyl-pyrimidine]	60%	100%	100%	90%	90%	20%	10%	60%	50%	10%	20%	10%	
COC(=O)c1nc(C2CC2)nc(N[C@@H](C)C2CCCCC2)c1Cl [4-173 (S), 5-Chloro-4-[(1S)-1-(cyclohexyl)ethyl-amino]-2-cyclopropyl-6-methoxycarbonyl-pyrimidine]	0%	40%	20%	0%	20%	0%	0%	0%	20%	0%	0%	0%	
COC(=O)c1nc(C2CC2)nc(NCC(C)c2ccc(Cl)cc2)c1Cl (stereo not drawn) [Compound 4-233, 5-Chloro-4-[2-(4-chlorophenyl)propyl-amino]-2-cyclopropyl-6-methoxycarbonyl-pyrimidine]	20%	60%	100%	50%	80%	10%	0%	10%	40%	0%	20%	0%	
COC(=O)c1nc(C2CC2)nc(NC2CCCCC2)c1Cl [Compound 4-35, 5-Chloro-4-cyclohexylamino-2-cyclopropyl-6-methoxycarbonyl-pyrimidine]	0%	60%	30%	20%	40%	30%	0%	0%	0%	0%	0%	0%	
COC(=O)c1nc(C2CC2)nc(N(C)Cc2c(Cl)cccc2Cl)c1Cl [Compound 5-104, 5-Chloro-2-cyclopropyl-4-[N-(2,6-dichlorophenyl-methyl)-N-methyl-amino]-6-methoxy-carbonylpyrimidine]													pest or weed control at 1000 g/ha ([1]; Rate 1,000 g/ha, post-emergence spray, evaluated after 13 days (100=total damage to plant; 0=no damage to plant), read-out: Percentage damage caused to weed species, post-emergence, ECHCG): 0%; pest or weed control at 1000 g/ha ([2]; Rate 1,000 g/ha, post-emergence spray, evaluated after 13 days (100=total damage to plant; 0=no damage to plant), read-out: Percentage damage caused to weed species, post-emergence, IPOHE): 70%; pest or weed control at 1000 g/ha ([3]; Rate 1,000 g/ha, post-emergence spray, evaluated after 13 days (100=total damage to plant; 0=no damage to plant), read-out: Percentage damage caused to weed species, post-emergence, AMARE): 60%; pest or weed control at 1000 g/ha ([4]; Rate 1,000 g/ha, post-emergence spray, evaluated after 13 days (100=total damage to plant; 0=no damage to plant), read-out: Percentage damage caused to weed species, post-emergence, SETFA): 20%; pest or weed control at 1000 g/ha ([5]; Rate 1,000 g/ha, post-emergence spray, evaluated after 13 days (100=total damage to plant; 0=no damage to plant), read-out: Percentage damage caused to weed species, post-emergence, SOLNI): 60%; pest or weed control at 1000 g/ha ([6]; Rate 1,000 g/ha, post-emergence spray, evaluated after 13 days (100=total damage to plant; 0=no damage to plant), read-out: Percentage damage caused to weed species, post-emergence, ALOMY): 0%; pest or weed control at 1000 g/ha ([7]; pre-emergence, rate 1,000 g/ha, evaluated after 13 days (100=total damage to plant; 0=no damage), read-out: Percentage damage caused to weed species, ECHCG): 0%; pest or weed control at 1000 g/ha ([8]; pre-emergence, rate 1,000 g/ha, evaluated after 13 days (100=total damage to plant; 0=no damage), read-out: Percentage damage caused to weed species, IPOHE): 40%; pest or weed control at 1000 g/ha ([9]; pre-emergence, rate 1,000 g/ha, evaluated after 13 days (100=total damage to plant; 0=no damage), read-out: Percentage damage caused to weed species, AMARE): 30%; pest or weed control at 1000 g/ha ([10]; pre-emergence, rate 1,000 g/ha, evaluated after 13 days (100=total damage to plant; 0=no damage), read-out: Percentage damage caused to weed species, SETFA): 0%; pest or weed control at 1000 g/ha ([11]; pre-emergence, rate 1,000 g/ha, evaluated after 13 days (100=total damage to plant; 0=no damage), read-out: Percentage damage caused to weed species, SOLNI): 10%; pest or weed control at 1000 g/ha ([12]; pre-emergence, rate 1,000 g/ha, evaluated after 13 days (100=total damage to plant; 0=no damage), read-out: Percentage damage caused to weed species, ALOMY): 0%
COC(=O)c1nc(C2CC2)nc(NCC(C)(F)c2cccc(Cl)c2)c1Cl (stereo not drawn) [Compound 4-241, 5-Chloro-4-[2-(3-chlorophenyl)-2-fluoro-propylamino]-2-cyclopropyl-6-methoxycarbonyl-pyrimidine]	10%	60%	60%	30%	70%	0%	0%	0%	30%	0%	0%	0%	
COC(=O)c1nc(C2CC2)nc(NC(C)(C)c2ccccc2)c1Cl [Compound 4-189, 5-Chloro-2-cyclopropyl-6-methoxycarbonyl-4-(1-methyl-1-phenyl-ethylamino)-pyrimidine]	0%	100%	100%	50%	90%	20%	0%	40%	60%	0%	50%	20%	
